Laboratory results taken from ChEMBL document CHEMBL4342525, “Synthesis and Biochemical Evaluation of Noncyclic Nucleotide Exchange Proteins Directly Activated by cAMP 1 (EPAC1) Regulators” (J Med Chem, 2020).
Active and inactive are the calls of the source. The calls are words filed in the database; no cut-off is given here.

Tests used:
[1] = biological target: T1, Rap guanine nucleotide exchange factor 3 (Homo sapiens) (UniProt O95398); experiment: Activity at recombinant EPAC1 (149 to 881 residues) (unknown origin) assessed as reduction in cAMP-induced stimulation of dissociation of fluorescent MANT-GDP from recombinant Rap1b at 500 uM in presence of excess nonfluorescent nucleotides by fluorescence based in-vitro GEF assay
T1 sequence (whole entry): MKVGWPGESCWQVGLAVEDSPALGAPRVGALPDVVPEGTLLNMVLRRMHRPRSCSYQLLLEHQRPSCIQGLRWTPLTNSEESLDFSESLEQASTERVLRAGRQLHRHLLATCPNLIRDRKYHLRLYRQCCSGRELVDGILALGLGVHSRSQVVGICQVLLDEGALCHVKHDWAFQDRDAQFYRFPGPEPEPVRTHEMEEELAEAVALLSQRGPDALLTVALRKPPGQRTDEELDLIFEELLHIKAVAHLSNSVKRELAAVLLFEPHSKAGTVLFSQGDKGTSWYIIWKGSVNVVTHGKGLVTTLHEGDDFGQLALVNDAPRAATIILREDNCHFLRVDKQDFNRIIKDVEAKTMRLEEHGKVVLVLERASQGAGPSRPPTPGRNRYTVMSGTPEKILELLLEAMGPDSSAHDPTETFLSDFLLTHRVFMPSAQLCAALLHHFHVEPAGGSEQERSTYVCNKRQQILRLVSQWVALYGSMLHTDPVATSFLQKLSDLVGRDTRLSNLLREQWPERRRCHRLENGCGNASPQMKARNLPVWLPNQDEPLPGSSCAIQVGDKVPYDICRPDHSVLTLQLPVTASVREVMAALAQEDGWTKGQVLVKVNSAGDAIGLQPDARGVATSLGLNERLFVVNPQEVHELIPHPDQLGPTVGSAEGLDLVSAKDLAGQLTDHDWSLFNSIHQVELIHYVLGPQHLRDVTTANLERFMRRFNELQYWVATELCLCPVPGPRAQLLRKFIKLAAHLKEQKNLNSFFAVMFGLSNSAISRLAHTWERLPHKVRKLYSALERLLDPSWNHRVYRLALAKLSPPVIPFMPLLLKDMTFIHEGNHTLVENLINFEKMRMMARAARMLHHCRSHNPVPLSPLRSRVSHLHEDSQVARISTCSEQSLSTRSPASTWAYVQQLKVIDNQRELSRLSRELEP

[2] = Binding affinity to GST-tagged recombinant EPAC1 delta-DEP mutant (149 to 881 residues) (unknown origin) expressed in Escherichia coli BL21 Star (DE3) incubated for 4 hrs by 8-NBD-cAMP competition binding assay; parameters: species or system Homo sapiens
[3] = biological target: T1, Rap guanine nucleotide exchange factor 3 (Homo sapiens); experiment: Activation of EPAC1 in HUVEC assessed as reduction in IL-6-promoted signaling by measuring pSTAT3 protein levels at 100 uM pre-incubated for 30 mins before IL6 and sIL6Ralpha stimulation for 5 hrs by Western blotting analysis; assay type: cell-based
[4] = biological target: T1, Rap guanine nucleotide exchange factor 3 (Homo sapiens); experiment: Activation of EPAC1 in HUVEC assessed as reduction in IL-6-promoted signaling by measuring pERK protein levels at 100 uM pre-incubated for 30 mins before IL6 and sIL6Ralpha stimulation for 5 hrs by Western blotting analysis; assay type: cell-based
[5] = biological target: T1, Rap guanine nucleotide exchange factor 3 (Homo sapiens); experiment: Binding affinity to GST-tagged recombinant EPAC1 CNBD (169 to 318 residues) (unknown origin) expressed in Escherichia coli BL21 Star (DE3) assessed as relative fluorescence intensity incubated for 4 hrs by 8-NBD-cAMP competition binding assay relative to control; parameters: concentration or dose not given beside the values
[6] = biological target: T1, Rap guanine nucleotide exchange factor 3 (Homo sapiens); experiment: Activation of EPAC1 (unknown origin) expressed in U2OS cells at 100 uM pre-incubated for 10 mins before 8-pCPT-2'-O-Me-cAMP stimulation for 10 mins using GST-RalGDS-RBD by Western blot analysis based active GTP-bound Rap1 pull down assay; assay type: cell-based
[7] = biological target: T1, Rap guanine nucleotide exchange factor 3 (Homo sapiens); experiment: Activation of EPAC1 in HUVEC assessed as reduction in IL-6-promoted signaling by measuring ICAM1 protein expression at 100 uM pre-incubated for 30 mins before IL6 and sIL6Ralpha stimulation for 5 hrs by Western blotting analysis; assay type: cell-based
[8] = biological target: T1, Rap guanine nucleotide exchange factor 3 (Homo sapiens); experiment: Activation of recombinant EPAC1 (149 to 881 residues) (unknown origin) assessed as stimulation of dissociation of fluorescent MANT-GDP from recombinant Rap1b at 500 uM in presence of excess nonfluorescent nucleotides by fluorescence based in-vitro GEF assay relative to cAMP
[9] = biological target: T1, Rap guanine nucleotide exchange factor 3 (Homo sapiens); experiment: Activation of recombinant EPAC1 (149 to 881 residues) (unknown origin) assessed as stimulation of dissociation of fluorescent MANT-GDP from recombinant Rap1b at 10 uM in presence of excess nonfluorescent nucleotides by fluorescence based in-vitro GEF assay relative to cAMP
[10] = biological target: T2, Rap guanine nucleotide exchange factor 3 (Homo sapiens, UniProt O95398); experiment: Activation of recombinant EPAC1 (149 to 881 residues) (unknown origin) assessed as stimulation of dissociation of fluorescent MANT-GDP from recombinant Rap1b in presence of excess nonfluorescent nucleotides by fluorescence based in-vitro GEF assay
T2 sequence (O95398 whole entry): T1 sequence (whole entry)

[11] = biological target: T1, Rap guanine nucleotide exchange factor 3 (Homo sapiens); experiment: Activation of EPAC1 in HUVEC assessed as reduction in IL-6-promoted signaling by measuring SELE protein expression at 100 uM pre-incubated for 30 mins before IL6 and sIL6Ralpha stimulation for 5 hrs by Western blotting analysis; assay type: cell-based
[12] = biological target: T1, Rap guanine nucleotide exchange factor 3 (Homo sapiens); experiment: Activation of EPAC1 (unknown origin) expressed in U2OS cells at 100 uM incubated for 10 mins using GST-RalGDS-RBD by Western blot analysis based active GTP-bound Rap1 pull down assay; assay type: cell-based
[13] = Activation of PKA in human U2OS cells stably transfected with EPAC1 assessed as increase in VASP phosphorylation at 100 uM by Western blot analysis; assay type: cell-based
[14] = biological target: T1, Rap guanine nucleotide exchange factor 3 (Homo sapiens); experiment: Activation of EPAC1 in HUVEC assessed as reduction in IL-6-promoted signaling by measuring VCAM1 protein expression at 100 uM pre-incubated for 30 mins before IL6 and sIL6Ralpha stimulation for 5 hrs by Western blotting analysis; assay type: cell-based
[15] = biological target: T1, Rap guanine nucleotide exchange factor 3 (Homo sapiens); experiment: Activation of EPAC1 in HUVEC assessed as reduction in IL-6-promoted signaling by measuring pAKT protein levels at 100 uM pre-incubated for 30 mins before IL6 and sIL6Ralpha stimulation for 5 hrs by Western blotting analysis; assay type: cell-based
[16] = biological target: T2, Rap guanine nucleotide exchange factor 3; experiment: Binding affinity to GST-tagged recombinant EPAC1 CNBD (169 to 318 residues) (unknown origin) expressed in Escherichia coli BL21 Star (DE3) incubated for 4 hrs by 8-NBD-cAMP competition binding assay
[17] = biological target: T1, Rap guanine nucleotide exchange factor 3 (Homo sapiens); experiment: Activity at EPAC1 in HUVEC assessed as promotion of IL-6-promoted signaling by measuring increased pAKT protein levels at 100 uM pre-incubated for 30 mins before IL6 and sIL6Ralpha stimulation for 5 hrs by Western blotting analysis; assay type: cell-based
[18] = biological target: T1, Rap guanine nucleotide exchange factor 3 (Homo sapiens); experiment: Activation of recombinant EPAC1 (149 to 881 residues) (unknown origin) assessed as stimulation of dissociation of fluorescent MANT-GDP from recombinant Rap1b up to 100 uM in presence of excess nonfluorescent nucleotides by fluorescence based in-vitro GEF assay relative to cAMP

Row | Structure (SMILES) | Activity [1] | IC50 [2] [µM] | Activity [3] | Activity [4] | Activity [5] [%] | Activity [6] | Activity [7] | Activity [8] [%] | Activity [9] | EC50 [10] [µM] | Activity [11] | Activity [12] | Activity [13] | Activity [14] | Activity [15] | IC50 [16] [µM] | Activity [17] | Activity [18]
1 | COc1ccc2ccc(OCC(=O)NS(=O)(=O)c3ccc(N)cc3OC)cc2c1 | Active | 0.6 | inactive | inactive | 7 | Active | inactive | 2 | Active | 5 | inactive | Active | Not Active | inactive | inactive | – | – | –
2 | Cc1cc(Nc2ncccc2C(F)(F)F)cc(S(=O)(=O)NC(=O)COc2ccc3ccccc3c2)c1 | – | – | Active | inactive | 56 | – | inactive | – | Active | – | inactive | Active | Not Active | Active | – | 4.6 | Active | –
3 | COc1ccc2ccc(OCC(=O)NS(=O)(=O)c3ccc4ccccc4c3)cc2c1 | – | 0.5 | – | – | 14 | Active | – | – | Active | 5 | – | – | Not Active | – | – | – | – | Active
4 | Cc1ccc(S(=O)(=O)NC(=O)COc2ccc3ccccc3c2)c(C)c1 | – | 6.7 | Active | inactive | 61 | – | – | – | – | – | – | Active | – | Active | – | 9.2 to 12 | Active | –
